Measured values from patent publication US11427548B2 (Arvinas Operations, Inc., priority 2015, dated 2022).
Where two headings read alike, the source gives them in different places.

Target: T1, Androgen Receptor (Homo sapiens, UniProt P10275)
T1 construct: endogenous in cells; host or cells: VCaP cells
T1 sequence (P10275 1-920): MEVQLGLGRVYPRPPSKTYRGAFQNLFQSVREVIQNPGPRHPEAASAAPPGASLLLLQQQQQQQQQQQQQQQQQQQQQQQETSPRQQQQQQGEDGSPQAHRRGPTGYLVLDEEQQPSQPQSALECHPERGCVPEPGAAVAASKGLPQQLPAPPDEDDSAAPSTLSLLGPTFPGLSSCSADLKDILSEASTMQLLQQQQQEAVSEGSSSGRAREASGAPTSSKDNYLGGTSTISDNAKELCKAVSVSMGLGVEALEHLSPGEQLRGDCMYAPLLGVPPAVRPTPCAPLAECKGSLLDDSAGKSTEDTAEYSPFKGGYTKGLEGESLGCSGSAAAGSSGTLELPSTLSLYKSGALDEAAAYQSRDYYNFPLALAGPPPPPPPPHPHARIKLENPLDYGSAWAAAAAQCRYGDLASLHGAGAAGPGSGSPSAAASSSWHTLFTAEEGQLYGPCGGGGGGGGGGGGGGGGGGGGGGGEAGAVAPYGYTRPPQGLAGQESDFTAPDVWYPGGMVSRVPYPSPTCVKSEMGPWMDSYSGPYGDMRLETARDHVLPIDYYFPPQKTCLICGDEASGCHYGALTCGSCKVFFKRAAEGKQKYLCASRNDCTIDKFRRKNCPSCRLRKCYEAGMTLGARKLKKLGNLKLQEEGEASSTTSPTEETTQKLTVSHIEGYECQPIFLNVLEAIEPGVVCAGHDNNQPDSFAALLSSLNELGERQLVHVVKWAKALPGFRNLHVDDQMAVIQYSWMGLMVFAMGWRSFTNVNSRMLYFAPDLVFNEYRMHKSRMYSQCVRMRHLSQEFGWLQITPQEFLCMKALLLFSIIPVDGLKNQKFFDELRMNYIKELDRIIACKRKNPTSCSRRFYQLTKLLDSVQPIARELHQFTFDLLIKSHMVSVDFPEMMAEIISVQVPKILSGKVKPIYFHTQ
Test: Androgen Receptor ELISA assay (PathScan AR ELISA) in VCaP cells: AR degradation, Dmax and DC50
Assay type: cell-based
How it was run: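 VCaP cells, 30,000/well, grown ≥3 days in phenol red-free RPMI with 5% charcoal-stripped FBS; compound added in 0.1% DMSO with 0.1 nM R1881, 7 half-log doses, 24 h. Lysate AR quantified by PathScan sandwich ELISA, HRP/TMB read at 450 nm, giving DC50 and Dmax.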

[1] = VCaP cells; Table 36; read-out: VCaP DC50
[2] = VCaP, VCaP cells; Table 36; read-out: VCaP Dmax (%)
[3] = read-out: VCaP DC50; VCaP cells; Table 36

Row | Compound | DC50 [1] | Dmax [2] | Dmax (VCaP, read-out: VCaP Dmax (%)) | DC50 [3] | Dmax (VCaP, read-out: VCaP Dmax (%), VCaP cells; Table 36)
1 | Cc1ncsc1-c1ccc([C@H](C)NC(=O)[C@@H]2C[C@@H](O)CN2C(=O)[C@@H](NC(=O)COCCCCCC2(c3ccc(C(=O)N[C@H]4C(C)(C)[C@H](Oc5ccc(C#N)c(Cl)c5)C4(C)C)cc3)COC2)C(C)(C)C)cc1 [Example 685, (2S,4R)-1-((S)-2-(2-((5-(3-(4-(((1r,3r)-3-(3-chloro-4-cyanophenoxy)-2,2,4,4-tetramethylcyclobutyl)carbamoyl)phenyl)oxetan-3-yl)pentyl)oxy)acetamido)-3,3-dimethylbutanoyl)-4-hydroxy-N-((S)-1-(4-(4-methylthiazol-5-yl)phenyl)ethyl)pyrrolidine-2-carboxamide] | < 50 nM | > 71% |  |  | 
2 | Cc1ncsc1-c1ccc([C@H](C)NC(=O)[C@@H]2C[C@@H](O)CN2C(=O)[C@@H](NC(=O)CN2CCN(CC3(CNc4ccc(C(=O)N[C@H]5C(C)(C)[C@H](Oc6ccc(C#N)c(C(F)(F)F)c6)C5(C)C)cc4)COC3)CC2)C(C)(C)C)cc1 [Example 686, (2S,4R)-1-((S)-2-(2-(4-((3-(((4-(((1r,3r)-3-(4-cyano-3-(trifluoromethyl)phenoxy)-2,2,4,4-tetramethylcyclobutyl)carbamoyl)phenyl)amino)methyl)oxetan-3-yl)methyl)piperazin-1-yl)acetamido)-3,3-dimethylbutanoyl)-4-hydroxy-N-((S)-1-(4-(4-methylthiazol-5-yl)phenyl)ethyl)pyrrolidine-2-carboxamide] |  |  | 26 to 50% | < 50 nM | 
3 | Cc1ncsc1-c1ccc([C@H](C)NC(=O)[C@@H]2C[C@@H](O)CN2C(=O)[C@@H](NC(=O)CCCCC(CCCc2ccc(C(=O)N[C@H]3C(C)(C)[C@H](Oc4ccc(C#N)c(Cl)c4)C3(C)C)nc2)N2CCN(C)CC2)C(C)(C)C)cc1 (stereo partly drawn) [Example 687, N-((1R,3R)-3-(3-chloro-4-cyanophenoxy)-2,2,4,4-tetramethylcyclobutyl)-5-(9-(((S)-1-((2S,4R)-4-hydroxy-2-(((S)-1-(4-(4-methylthiazol-5-yl)phenyl)ethyl)carbam-oyl)pyrrolidin-1-yl)-3,3-dimethyl-1-oxobutan-2-yl)amino)-4-(4-methylpiperazin-1-yl)-9-oxononyl)picolinamide] | 51 to 500 nM | 26 to 50% |  |  | 
4 | Cc1ncsc1-c1ccc([C@H](C)NC(=O)C2C[C@@H](O)CN2C(=O)C(NC(=O)COCC(F)(F)C(F)(F)C(F)(F)COc2ccc(C(=O)N[C@H]3C(C)(C)[C@H](Oc4ccc(C#N)c(Cl)c4)C3(C)C)cc2)C(C)(C)C)cc1 (stereo partly drawn) [Example 688, (2S,4R)-1-((S)-2-(2-((5-(4-(((1r,3r)-3-(3-chloro-4-cyanophenoxy)-2,2,4,4-tetramethylcyclobutyl)carbamoyl)phenoxy)-2,2,3,3,4,4-hexafluoropentyl)oxy)acetamido)-3,3-diemthylbutanoyl)-4-hydroxy-N-((S)-1-(4-(4-methylthiazol-5-yl)phenyl)ethyl)pyrrolidine-2-carboxamide] |  |  | > 71% | < 50 nM | 
5 | Cc1ncsc1-c1ccc([C@H](C)NC(=O)[C@@H]2C[C@@H](O)CN2C(=O)[C@@H](NC(=O)COCCN2CCN(c3cnc(C(=O)N[C@H]4C(C)(C)[C@H](Oc5ccc(C#N)c(C(F)(F)F)c5)C4(C)C)cn3)CC2)C(C)(C)C)cc1 [Example 689, N-((1r,3r)-3-(4-cyano-3-(trifluoromethyl)phenoxy)-2,2,4,4-tetramethylcyclobutyl)-5-(4-(2-(2-(((S)-1-((2S,4R)-4-hydroxy-2-(((S)-1-(4-(4-methylthiazol-5-yl)phenyl)ethyl)carbam-oyl)pyrrolidin-1-yl)-3,3-dimethyl-1-oxobutan-2-yl)amino)-2-oxoethoxy)ethyl)pipera-zin-1-yl)pyrazine-2-carboxamide] | < 50 nM | > 71% |  |  | 
6 | Cc1ncsc1-c1ccc([C@H](C)NC(=O)[C@@H]2C[C@@H](O)CN2C(=O)[C@@H](NC(=O)CN2CCC(O[C@H]3C[C@H](Nc4ccc(C(=O)N[C@H]5C(C)(C)[C@H](Oc6ccc(C#N)c(Cl)c6)C5(C)C)cn4)C3)CC2)C(C)(C)C)cc1 [Example 690, N-((1r,3R)-3-(3-chloro-4-cyanophenoxy)-2,2,4,4-tetramethylcyclobutyl)-6-(((1S,3R)-3-((1-(2-(((S)-1-((2S,4R)-4-hydroxy-2-(((S)-1-(4-(4-methylthiazol-5-yl)phenyl)ethyl)carbam-oyl)pyrrolidin-1-yl)-3,3-dimethyl-1-oxobutan-2-yl)amino)-2-oxoethyl)piperidin-4-yl)oxy)cyclobutyl)amino) nicotinamide] | < 50 nM |  | > 71% |  | 
7 | Cc1ncsc1-c1ccc([C@H](C)NC(=O)[C@@H]2C[C@@H](O)CN2C(=O)[C@@H](c2ncc(CCCCCNc3ccc(C(=O)N[C@H]4C(C)(C)[C@H](Oc5ccc(C#N)c(Cl)c5)C4(C)C)nc3)n2C)C(C)C)cc1 [Example 691, N-((1r,3r)-3-(3-chloro-4-cyanophenoxy)-2,2,4,4-tetramethylcyclobutyl)-5-((5-(2-((R)-1-((2S,4R)-4-hydroxy-2-(((S)-1-(4-(4-methylthiazol-5-yl)phenyl)ethyl)carbam-oyl)pyrrolidin-1-yl)-3-methyl-1-oxobutan-2-yl)-1-methyl-1H-imidazol-5-yl)pentyl)amino)picolin-amide] | > 501 nM | < 25% |  |  | 
8 | Cc1ncsc1-c1ccc([C@H](C)NC(=O)[C@@H]2C[C@@H](O)CN2C(=O)[C@H](c2ncc(CCCCCNc3ccc(C(=O)N[C@H]4C(C)(C)[C@H](Oc5ccc(C#N)c(Cl)c5)C4(C)C)nc3)n2C)C(C)C)cc1 [Example 692, N-((1r,3r)-3-(3-chloro-4-cyanophenoxy)-2,2,4,4-tetramethylcyclobutyl)-5-((5-(2-((S)-1-((2S,4R)-4-hydroxy-2-(((S)-1-(4-(4-methylthiazol-5-yl)phenyl)ethyl)carbam-oyl)pyrrolidin-1-yl)-3-methyl-1-oxobutan-2-yl)-1-methyl-1H-imidazol-5-yl)pentyl)amino)picolin-amide] | > 501 nM | < 25% |  |  | 
9 | Cc1ncsc1-c1ccc([C@H](C)NC(=O)[C@@H]2C[C@@H](O)CN2C(=O)[C@@H](NC(=O)CCCC/C(CCCc2ccc(C(=O)N[C@H]3C(C)(C)[C@H](Oc4ccc(C#N)c(Cl)c4)C3(C)C)nc2)=N\O)C(C)(C)C)cc1 [Example 693, N-((1r,3r)-3-(3-chloro-4-cyanophenoxy)-2,2,4,4-tetramethylcyclobutyl)-5-((E)-9-(((S)-1-((2S,4R)-4-hydroxy-2-(((S)-1-(4-(4-methylthiazol-5-yl)phenyl)ethyl)carbam-oyl)pyrrolidin-1-yl)-3,3-dimethyl-1-oxobutan-2-yl)amino)-4-(hydroxyimino)-9-oxononyl)picolinamide] | < 50 nM | 26 to 50% |  |  | 
10 | Cc1ncsc1-c1ccc(C(C)NC(=O)C2CC(O)CN2C(=O)C(NC(=O)CN2CCOCCOCCN(c3ccc(C(=O)NC4C(C)(C)C(Oc5ccc(C#N)c(Cl)c5)C4(C)C)cc3)CCOCCOCC2)C(C)(C)C)cc1 [Example 694, (2S,4R)-1-((S)-2-(2-(16-(4-(((1r,3r)-3-(3-chloro-4-cyanophenoxy)-2,2,4,4-tetramethylcyclobutyl)carbamoyl)phenyl)-1,4,10,13-tetraoxa-7,16-diazacyclooctadecan-7-yl)acetamido)-3,3-dimethylbutanoyl)-4-hydroxy-N-((S)-1-(4-(4-methylthiazol-5-yl)phenyl)ethyl)pyrrolidine-2-carboxamide] | < 50 nM |  |  |  | 51 to 70%
11 | CCO/N=C(\CCCCC(=O)N[C@H](C(=O)N1C[C@H](O)C[C@H]1C(=O)N[C@@H](C)c1ccc(-c2scnc2C)cc1)C(C)(C)C)CCCc1ccc(C(=O)N[C@H]2C(C)(C)[C@H](Oc3ccc(C#N)c(Cl)c3)C2(C)C)nc1 [Example 695, N-((1r,3r)-3-(3-chloro-4-cyanophenoxy)-2,2,4,4-tetramethylcyclobutyl)-5-((E)-4-(ethoxyimino)-9-(((S)-1-((2S,4R)-4-hydroxy-2-(((S)-1-(4-(4-methylthiazol-5-yl)phenyl)ethyl)carbam-oyl)pyrrolidin-1-yl)-3,3-dimethyl-1-oxobutan-2-yl)amino)-9-oxononyl)picolinamide] | 51 to 500 nM | 51 to 70% |  |  | 
